Assay results taken from paper PMC8261047, “In vivo Inhibition of the 3-Dehydroquinate Synthase by 7-Deoxysedoheptulose Depends on Promiscuous Uptake by Sugar Transporters in Cyanobacteria” (Frontiers in Microbiology, 2021).
Values belong to the molecule of their own block, whether it stands above or below them.

Legend:
[1] = target: T1, 3-dehydroquinate synthase (AvDHQS, Ava_4386) (Trichormus variabilis, UniProt Q3M4V2); experiment: Malachite green phosphate release assay with purified AvDHQS; Michaelis-Menten kinetics at […] 7dSh; type: biochemical
T1 construct: gene aroB; Ava_4386 in pET22b, C-terminal His-Tag, ∼39 kDa
T1 sequence (Q3M4V2 1-363): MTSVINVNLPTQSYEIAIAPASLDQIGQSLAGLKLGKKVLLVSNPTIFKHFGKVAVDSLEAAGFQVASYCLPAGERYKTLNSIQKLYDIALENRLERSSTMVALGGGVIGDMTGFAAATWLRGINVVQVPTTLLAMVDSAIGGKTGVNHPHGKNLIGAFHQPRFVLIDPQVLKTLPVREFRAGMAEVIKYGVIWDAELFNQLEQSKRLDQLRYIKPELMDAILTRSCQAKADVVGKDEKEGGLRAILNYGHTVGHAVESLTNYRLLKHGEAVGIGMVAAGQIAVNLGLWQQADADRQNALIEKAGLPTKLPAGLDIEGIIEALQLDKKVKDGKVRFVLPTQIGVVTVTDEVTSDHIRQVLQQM

[2] = substrate: O=C(O)C(=O)C[C@@H](O)[C@H](O)[C@H](O)COP(=O)(O)O; experiment: Malachite green phosphate release assay with purified AvDHQS; kM of the substrate; type: biochemical, Trichormus variabilis; settings: NAD^+

Ki [1]: 17.6 µM
Molecule: C[C@@H](O)[C@@H](O)[C@@H](O)[C@H](O)C(=O)CO [7dSh, 7-deoxy-D-altro-2-heptulose]

B1: 3-dehydroquinate synthase (AvDHQS, Ava_4386) (Trichormus variabilis ATCC 29413) (protein)
chain: T1 sequence (Q3M4V2 1-363)
notes: Ava_4386 in pET22b, C-terminal His-Tag, ∼39 kDa
Km [2]: 1.8 ± 0.3 µM
